In data set [1] the test system is MRSA. The data set can be described thus: Broth microdilution MIC. The data set is classed as cell-based, methicillin-resistant S. aureus. Conditions: Staphylococcus aureus. How it is done: Once it was determined that this specific 4,5-disubstitution pattern imparted microbicidal activity onto the 2-AI framework, this activity was quantified by measuring the MIC of each derivative against a variety of representative pathogenic bacterial strains using the microdilution protocol (CSLI, Performance Standards for Antimicrobial Suceptibility Testing; Nineteenth Informational Supplement, Clinical and Laboratory Standards Institute, Wayne, Pa., 2009). E. coli, MDRAB, P. aeruginosa, MRSA, MSSA, S. epidermidis and VRE were used for initial evaluation. From this screen, compound 15 was determined to be the lead compound and had MIC values (μg/mL) of 2, 2, 1, 0.5, 0.25, and 1 against E. coli, MDRAB, MRSA, VRE, S. Epidermidis and MSSA.
S. aureus (ATCC #29213), S. epidermidis (ATCC #29886), MRSA (ATCC # BAA-44), MDRAB (ATCC # BAA-1605), vancomycin resistant Enterococcus faecium (VRE) (ATCC #51559) and E. coli (ATCC #35695) were obtained from the ATCC. Mechanically difibrinated sheep blood (DSB100) was obtained from Hemostat Labs. Mueller-Hinton medium was purchased from Fluka (#70192).
Broth Microdilution Method for MIC Determination.

For data set [2], the system named is Vibrio cholerae. Kind of data set: Marine bacteria microdilution MIC. The format is cell-based. Conditions: V. cholerae.
The test system of data set [3] is MSSA. Kind of data set: Dispersion of pre-formed biofilms. To be noted: Staphylococcus aureus, read-out: EC50, 50% dispersion of a pre-formed biofilm. The format is cell-based, S. aureus. As to the method: (§1) The ability of 15 and 19 to disperse pre-formed biofilms was also determined for all of the aforementioned bacterial strains (both marine and terrestrial). To quantify this effect, the EC50 value of each compound against each bacterial strain was determined, where EC50 is defined as the concentration of compound that elicits 50% dispersion of a pre-formed biofilm. Both compounds are able to disperse pre-formed biofilms at low micromolar concentrations. These concentrations are also microbicidal to planktonic bacteria. […]
(§2) Preformed Biofilms: Dispersion assays were performed by taking an overnight culture of bacterial strain and subculturing it at an OD600 of 0.01 into the necessary medium (brain heart infusion for E. faecium, tryptic soy broth with a 0.5% glucose supplement (TSBG) for MRSA, S. aureus and S. epidermidis, Luria-Bertani (LB) medium for MDRAB and E. coli, and tryptic soy broth with a 0.5% glucose supplement and a 3.0% NaCl supplement (TGN) for R. salexigens, V. cholerae, V. vulnificus and L. anguillarum.) The resulting bacterial suspension was aliquoted (100 μL) into the wells of a 96-well PVC microtiter plate. […] Biofilm dispersion was quantitated by measuring the OD540 of each well in which a negative control lane wherein no biofilm was formed served as a background and was subtracted out.

The test system of data set [4] is E. coli. The data set can be described thus: Dispersion of pre-formed biofilms. The format is cell-based. Conditions: Escherichia coli, read-out: EC50, 50% dispersion of a pre-formed biofilm. How it is done: (§3) The ability of 15 and 19 to disperse pre-formed biofilms was also determined for all of the aforementioned bacterial strains (both marine and terrestrial). To quantify this effect, the EC50 value of each compound against each bacterial strain was determined, where EC50 is defined as the concentration of compound that elicits 50% dispersion of a pre-formed biofilm. Both compounds are able to disperse pre-formed biofilms at low micromolar concentrations. These concentrations are also microbicidal to planktonic bacteria.
(§4) Procedure to Determine the Dispersal Effect of Test Compounds on E. faecium (VRE), MRSA, S. aureus, S. epidermidis, E. coli, R. salexigens, V. cholerae, V. vulnificus and L. anguillarum
(§5) Preformed Biofilms: Dispersion assays were performed by taking an overnight culture of bacterial strain and subculturing it at an OD600 of 0.01 into the necessary medium (brain heart infusion for E. faecium, tryptic soy broth with a 0.5% glucose supplement (TSBG) for MRSA, S. aureus and S. epidermidis, Luria-Bertani (LB) medium for MDRAB and E. coli, and tryptic soy broth with a 0.5% glucose supplement and a 3.0% NaCl supplement (TGN) for R. salexigens, V. cholerae, V. vulnificus and L. anguillarum.) The resulting bacterial suspension was aliquoted (100 μL) into the wells of a 96-well PVC microtiter plate. Plates were then wrapped in GLAD Press n' Seal® followed by an incubation under stationary conditions at 37° C. to establish the biofilms. After 24 h, the medium was discarded from the wells and the plates were washed thoroughly with water. Stock solutions of predetermined concentrations of the test compound were then made in the necessary medium. These stock solutions were aliquoted (100 μL) into the wells of the 96-well PVC microtiter plate with the established biofilms. Medium alone was added to a subset of the wells to serve as a control. Sample plates were then incubated for 24 h at 37° C. After incubation, the medium was discarded from the wells and the plates were washed thoroughly with water. Plates were then stained with 100 μL of 0.1% solution of crystal violet (CV) and then incubated at ambient temperature for 30 min. Plates were washed with water again and the remaining stain was solubilized with 200 μL of 95% ethanol. A sample of 125 μL of solubilized CV stain from each well was transferred to the corresponding wells of a polystyrene microtiter dish. Biofilm dispersion was quantitated by measuring the OD540 of each well in which a negative control lane wherein no biofilm was formed served as a background and was subtracted out.

In data set [5] the test system is MDRAB. Kind of data set: Dispersion of pre-formed biofilms. The data set is classed as cell-based. Conditions: read-out: EC50, 50% dispersion of a pre-formed biofilm. As to the method: as §3, §4, §5
Data set [6] concerns S. epidermidis. Kind of data set: Dispersion of pre-formed biofilms. The format is cell-based. To be noted: Staphylococcus epidermidis, read-out: EC50, 50% dispersion of a pre-formed biofilm. How it is done: as §3, §4, §5
Data set [7] has as its system V. cholerae. The data set can be described thus: Dispersion of pre-formed biofilms. The data set is classed as cell-based. To be noted: Vibrio cholerae, read-out: EC50, 50% dispersion of a pre-formed biofilm. How it is done:
as §3, §4, §5

The test system of data set [8] is V. vulnificus. Kind of data set: Dispersion of pre-formed biofilms. The data set is classed as cell-based. Conditions: Vibrio vulnificus, read-out: EC50, 50% dispersion of a pre-formed biofilm. How it is done:
as §3, §4, §5

For data set [9], the system named is VRE. The data set can be described thus: Dispersion of pre-formed biofilms. The format is cell-based, E. faecium (VRE). To be noted: Enterococcus, read-out: EC50, 50% dispersion of a pre-formed biofilm. How it is done:
as §1, §2

Data set [10] has as its system L. anguillarum. Kind of data set: Dispersion of pre-formed biofilms. The data set is classed as cell-based, Listonella anguillarum. To be noted: Vibrio anguillarum, read-out: EC50, 50% dispersion of a pre-formed biofilm. How it is done: as §1, §2
In data set [11] the test system is difibrinated sheep's blood. The data set can be described thus: Red blood cell hemolysis assay. The format is cell-based. How it is done:
Once the anti-biofilm and antibacterial properties of each 2-AI derivative had both been evaluated, the hemolytic potential of compounds 15, 19 and 1 was assessed (Liu et al., Antimicrob. Agents. Ch., 2007, 51: 597-603). […] Hemolysis was measured using difibrinated sheep's blood. Hemolytic potential was quantified by determining the HD50 of compound 15, 19 and 1, where HD50 is defined as the concentration that elicits 50% hemolysis. From this assay, we determined that the HD50 of compound 15, 19 and 1 were 66 μM, 61 μM and >400 μM. This corresponds to 22 and 21 μg/mL for compounds 15 and 19.
Red Blood Cell Hemolysis Assay.
Hemolysis assays were performed on mechanically difibrinated sheep blood (Hemostat Labs: DSB100). 1.5 mL of blood was placed into a microcentrifuge tube and centrifuged at 10000 rpm for ten minutes. The supernatant was removed and then the cells were resuspended with 1 mL of phosphate-buffered saline (PBS). The suspension was centrifuged, the supernatant was removed and cells resuspended two more times. The final cell suspension was then diluted tenfold. Test compound solutions were made in PBS and then added to aliquots of the tenfold suspension dilution. PBS alone was used as a negative control and as a zero hemolysis marker whereas a 1% Triton X sample was used as a positive control and the 100% lysis marker. Samples were then placed in an incubator at 37° C. while being shaken at 200 rpm for one hour. After one hour, the samples were transferred to microcentrifuge tubes and then centrifuged at 10000 rpm for ten minutes. The resulting supernatant was diluted by a factor of 40 in distilled water. The absorbance of the supernatant was measured with a UV spectrometer at a 540 nm wavelength.

Data set [12] deals with Vibrio vulnificus. The data set can be described thus: Marine bacteria microdilution MIC. Conditions: V. vulnificus.

The structures appear in SMILES notation. ≈ marks a conversion by molar mass, not a printed value. Where two headings read alike, the source gives them in different places.

Here are results for two compounds from US9815794B2, “Inhibition of bacterial biofilms and microbial growth with imidazole derivatives” (North Carolina State University, priority 2011, dated 2017).

For the compound `CCCCCc1[nH]c(N)nc1CCCCCc1ccccc1` [Compound 15, 5-pentyl-4-(5-phenylpentyl)-1H-imidazol-2-amine], the MIC worked out at 1 µg/mL (≈ 3.34 µM) in data set [1]; 4.20 µg/mL (≈ 14 µM) in data set [2]; 4.2 µg/mL (≈ 14 µM) in data set [2] (Vibrio cholerae); 2.10 µg/mL (≈ 7.01 µM) in data set [12]; 2.1 µg/mL (≈ 7.01 µM) in [12] (Vibrio vulnificus). Further, the EC50 in [3] is 19.9 ± 3.3 µM; in data set [4] it was 12 ± 1.6 µM; in data set [5], 7.1 ± 1.3 µM; in data set [6] it was 24.7 ± 5.8 µM; in [7] it was 7.12 ± 0.3 µM; in data set [8], 18.1 ± 2.3 µM. Moreover, the EC50 came out at 17.3 ± 2.3 µM in data set [9] and 14.7 ± 1.7 µM in data set [10]. The “HD50 (concentration that elicits 50% hemolysis)” value in data set [11] turned out to be 66 µM; in data set [11] (converted from μM) it was 22 µg/mL.

For the compound `CCCCCCc1[nH]c(N)nc1CCCCCc1ccccc1` [Compound 19, 5-hexyl-4-(5-phenylpentyl)-1H-imidazol-2-amine], the MIC was determined as 1 µg/mL (≈ 3.19 µM) in data set [1], 2.19 µg/mL (≈ 6.99 µM) in data set [2], 2.2 µg/mL (≈ 7.02 µM) in data set [2] (Vibrio cholerae) and 2.2 µg/mL (≈ 7.02 µM) in data set [12] (Vibrio vulnificus). Besides, the concentration for a half-maximal effect (EC50) turned out to be 26.1 ± 0.7 µM in data set [3]; 42.5 ± 6.1 µM in data set [4]; 11.1 ± 0.1 µM in data set [5]; 17.7 ± 0.3 µM in data set [6]; 14.7 ± 1.8 µM in data set [7]; 3.2 ± 1.3 µM in data set [8]. In addition, the EC50 in data set [9] is 14.1 ± 0.2 µM; in data set [10], 13.8 ± 1.5 µM. The “HD50 (concentration that elicits 50% hemolysis)” value in data set [11] stood at 61 µM; in [11] (converted from μM) it was 21 µg/mL.
